Experimental data from patent US10669272B2, “Substituted naphthyridinone compounds useful as T cell activators” (BRISTOL-MYERS SQUIBB COMPANY, priority 2018, dated 2020).
Where two headings read alike, the source gives them in different places.

What was measured:
human DGKα = target: T1, human DGKα (Homo sapiens, UniProt P23743); experiment: DGKα LIPGLO assay (extruded liposome substrate), in vitro DGK inhibition; assay type: biochemical; conditions: read-out: DGKa LIPGLO IC50
T1 construct: TVMV protease cleavage site (C); Hexa-His (C); made in house; host or cells: Sf9 insect cells (baculovirus, Bac-to-Bac)
T1 sequence (P23743 with tags, fused parts or gaps): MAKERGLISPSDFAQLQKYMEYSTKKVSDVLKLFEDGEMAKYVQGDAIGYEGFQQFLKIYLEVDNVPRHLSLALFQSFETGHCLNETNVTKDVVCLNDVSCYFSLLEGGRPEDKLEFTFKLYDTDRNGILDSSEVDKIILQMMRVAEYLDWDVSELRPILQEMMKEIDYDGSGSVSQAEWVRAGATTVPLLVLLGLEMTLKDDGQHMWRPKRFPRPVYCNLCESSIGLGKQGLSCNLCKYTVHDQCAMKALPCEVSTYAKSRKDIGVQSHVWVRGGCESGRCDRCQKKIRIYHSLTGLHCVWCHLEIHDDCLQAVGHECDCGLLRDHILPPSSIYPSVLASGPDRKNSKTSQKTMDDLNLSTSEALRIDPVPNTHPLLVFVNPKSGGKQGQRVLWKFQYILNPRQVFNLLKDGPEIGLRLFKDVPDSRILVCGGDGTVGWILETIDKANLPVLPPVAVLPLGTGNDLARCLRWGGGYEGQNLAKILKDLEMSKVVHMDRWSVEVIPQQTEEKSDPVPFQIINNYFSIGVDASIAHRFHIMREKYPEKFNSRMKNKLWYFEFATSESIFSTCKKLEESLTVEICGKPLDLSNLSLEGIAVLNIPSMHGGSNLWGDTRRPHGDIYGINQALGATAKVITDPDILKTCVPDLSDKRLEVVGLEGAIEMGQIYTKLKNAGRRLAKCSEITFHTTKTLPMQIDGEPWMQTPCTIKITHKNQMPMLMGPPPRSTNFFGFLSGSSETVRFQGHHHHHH

human DGKζ = target: T2, human DGKζ (Homo sapiens, UniProt Q13574); experiment: DGKζ LIPGLO assay (extruded liposome substrate), in vitro DGK inhibition; assay type: biochemical; conditions: read-out: DGKz LIPGLO IC50
T2 construct: TVMV protease cleavage site (C); Hexa-His (C); made in house; host or cells: Sf9 insect cells (baculovirus, Bac-to-Bac)
T2 sequence (Q13574 with tags, fused parts or gaps isoform Q13574-4): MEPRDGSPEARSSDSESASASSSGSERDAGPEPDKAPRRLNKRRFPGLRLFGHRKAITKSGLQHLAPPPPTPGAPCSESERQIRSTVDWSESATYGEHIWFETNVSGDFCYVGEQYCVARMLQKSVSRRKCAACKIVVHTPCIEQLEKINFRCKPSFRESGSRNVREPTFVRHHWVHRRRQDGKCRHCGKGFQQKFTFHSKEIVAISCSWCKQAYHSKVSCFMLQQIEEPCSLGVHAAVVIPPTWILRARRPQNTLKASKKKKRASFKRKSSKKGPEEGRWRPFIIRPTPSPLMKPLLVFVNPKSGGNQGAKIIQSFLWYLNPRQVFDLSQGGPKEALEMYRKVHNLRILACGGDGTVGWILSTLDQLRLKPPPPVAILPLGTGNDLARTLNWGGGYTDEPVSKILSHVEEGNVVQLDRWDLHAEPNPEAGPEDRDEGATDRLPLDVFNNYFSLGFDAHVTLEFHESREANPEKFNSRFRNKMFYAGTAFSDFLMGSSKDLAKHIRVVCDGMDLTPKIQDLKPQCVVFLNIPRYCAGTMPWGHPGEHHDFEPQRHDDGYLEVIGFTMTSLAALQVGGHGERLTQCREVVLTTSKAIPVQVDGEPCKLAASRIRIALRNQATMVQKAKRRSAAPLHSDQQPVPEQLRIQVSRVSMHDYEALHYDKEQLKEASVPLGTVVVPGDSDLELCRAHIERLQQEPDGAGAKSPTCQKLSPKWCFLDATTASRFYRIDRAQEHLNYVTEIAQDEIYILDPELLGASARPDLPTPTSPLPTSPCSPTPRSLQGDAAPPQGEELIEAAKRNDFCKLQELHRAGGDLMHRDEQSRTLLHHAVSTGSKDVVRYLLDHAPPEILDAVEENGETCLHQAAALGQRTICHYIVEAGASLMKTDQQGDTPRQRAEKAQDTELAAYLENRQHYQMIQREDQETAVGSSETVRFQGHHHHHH

Human venous whole blood = experiment: Human whole blood IFN-γ assay; assay type: cell-based; conditions: human whole blood, read-out: INFg Whole Blood Normalized Agonist EC50;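 also: blood from healthy donors exposed to compound for 1 h before stimulation with anti-CD3 and anti-CD28 at 1 µg/mL each, IFN-γ quantified in supernatant by AlphaLISA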
Method: Human Whole Blood IFN-γ Assay
Human venous whole blood (22.5 μL per well), obtained from healthy donors, was pre-treated with compounds for one hour at 37° C. in a humidified 95% air/5% CO2 incubator. The blood was stimulated with 2.5 μL anti-human CD3 and anti-CD28 mAb at a final concentration of 1 μg/mL each for 24 hours at 37° C. IFN-γ in the supernatants was measured using AlphLISA kit (Cat # AL217).

[1] = normalized to 3 μM reference compound with anti-CD3 plus anti-CD28 as 100% activation
[2] = Homo sapiens, 24 h, normalized to 3 μM reference compound with anti-CD3 plus anti-CD28 as 100% activation
[3] = anti-CD3 plus anti-CD28, 24 hours, 3 μM reference compound = 100% activation
[4] = Homo sapiens, 24 h, anti-CD3 plus anti-CD28, 24 hours, 3 μM reference compound = 100% activation

| SMILES | IC50 (human DGKα; liposome (LIPGLO) assay) [µM] | IC50 (human DGKζ; liposome (LIPGLO) assay) [µM] | EC50 (Human venous whole blood; [1]) [µM] | EC50 (Human venous whole blood; [2]) [µM] | also measured |
| --- | --- | --- | --- | --- | --- |
| COc1cc(F)ccc1C(C)N1C[C@H](C)N(c2cc(=O)n(C)c3ccc(C#N)nc23)C[C@H]1C (single isomer, unassigned) [Example 1237] | 6.1 | 0.58 | 12 | – | – |
| COCCOc1cc(C(C)N2C[C@H](C)N(c3cc(=O)n(C)c4ccc(C#N)nc34)C[C@H]2C)ccc1OC (single isomer, unassigned) [Example 1303] | 65 | 2.9 | – | 20 | – |
| C[C@@H]1CN(c2cc(=O)n(C)c3ccc(C#N)nc23)[C@@H](C)CN1C(c1ccc(F)cc1)C(C)(C)O (single isomer, unassigned) [Example 1309] | 4.6 | 13 | 7.9 | – | – |
| C[C@@H]1CN(c2c(F)c(=O)n(C)c3ccc(C#N)nc23)[C@@H](C)CN1C(c1ccc(F)cc1)c1c(F)cccc1F (single isomer, unassigned) [Example 329] | 3.6 | 4.5 | 13 | – | – |
| C[C@@H]1CN(c2cc(=O)n(C)c3ccc(C#N)nc23)[C@@H](C)CN1C(c1ccc(F)cc1)c1nccn1C (stereo partly shown) [Example 714] | 18 | 28 | 3.9 | – | – |
| C[C@@H]1CN(c2cc(=O)n(C)c3ccc(C#N)nc23)[C@@H](C)CN1C(c1ccc(F)cc1)c1csc(C2CC2)n1 (single isomer, unassigned) [Example 724] | – | – | – | – | IC50 (human DGKα; DGKα liposome (LIPGLO) assay): 0.084 µM; IC50 (human DGKζ; DGKζ liposome (LIPGLO) assay): 0.098 µM; EC50 (Human venous whole blood; [3]): 0.26 µM |
| CC(c1ccc(OC(F)(F)F)cc1)N1C[C@H](C)N(c2c(C#N)c(=O)n(C)c3ccc(C#N)nc23)C[C@H]1C (single isomer, unassigned) [Example 801] | – | – | – | – | IC50 (human DGKα; DGKα liposome (LIPGLO) assay): 0.068 µM; IC50 (human DGKζ; DGKζ liposome (LIPGLO) assay): 2.2 µM; EC50 (Human venous whole blood; [4]): 13 µM |
| CC[C@H]1CN(C(c2ccc(F)cc2)c2cc(C3CC3)on2)[C@H](CC)CN1c1cc(=O)n(C)c2ccc(C#N)nc12 (single isomer, unassigned) [Example 1074] | 0.044 | 0.047 | – | 0.042 | – |
| COC[C@H]1CN(C(c2ccc(F)cc2)c2ccc(F)cc2)[C@H](C)CN1c1cc(=O)n(C)c2ccc(C#N)nc12 [Example 1421, 8-((2R,5R)-4-(bis(4-fluorophenyl)methyl)-2-(methoxymethyl)-5-methylpiperazin-1-yl)-5-methyl-6-oxo-5,6-dihydro-1,5-naphthyridine-2-carbonitrile] | 2.1 | 0.47 | – | 1.5 | – |
| C[C@@H]1CN(c2c(C#N)c(=O)n(C)c3ccc(C#N)nc23)[C@@H](C)CN1C(c1ccc(F)cc1)c1csc(C2CC2)n1 (single isomer, unassigned) [Example 859] | – | – | – | – | IC50 (human DGKα; DGKα liposome (LIPGLO) assay): 3 µM; IC50 (human DGKζ; DGKζ liposome (LIPGLO) assay): 0.36 µM; EC50 (Human venous whole blood; [3]): 3.7 µM |
| CC(c1ccc(P(C)(C)=O)cc1)N1C[C@H](C)N(c2c(C#N)c(=O)n(C)c3ccc(C#N)nc23)C[C@H]1C (single isomer, unassigned) [Example 1294] | – | 220 | – | 20 | – |
| C[C@@H]1CN(c2cc(=O)n(C)c3ccc(C#N)nc23)[C@@H](C)CN1C(c1ccc(F)cc1)c1ccccc1P(C)(C)=O (single isomer, unassigned) [Example 1288] | 290 | – | – | 8.8 | – |
| C[C@@H]1CN(c2c(C#N)c(=O)n(C)c3ccc(C#N)nc23)CCN1Cc1ccccc1OC(F)(F)F [Example 999] | – | – | – | – | IC50 (human DGKα; DGKα liposome (LIPGLO) assay): 0.27 µM; EC50 (Human venous whole blood; [4]): 17 µM |
| CC(c1cc(C(C)(C)C)on1)N1C[C@H](C)N(c2cc(=O)n(C)c3ccc(C#N)nc23)C[C@H]1C (single isomer, unassigned) [Example 1284] | 0.76 | – | 2.8 | – | – |
| C[C@@H]1CN(c2cc(=O)n(C)c3ccc(C#N)nc23)[C@@H](C)CN1C(c1ccc(F)cc1)c1ccccc1P(C)(C)=O (stereo partly drawn) [Example 1287, 8-((2S,5R)-4-((2-(dimethylphosphoryl)phenyl)(4-fluorophenyl)methyl)-2,5-dimethylpiperazin-1-yl)-5-methyl-6-oxo-5,6-dihydro-1,5-naphthyridine-2-carbonitrile] | – | 3.7 | – | 8.4 | – |
| CCC(c1cc(Cl)cc2c1OCC2)N1C[C@H](C)N(c2cc(=O)n(C)c3ccc(C#N)nc23)C[C@H]1C (single isomer, unassigned) [Example 357] | – | 0.89 | 13 | – | – |
| COC[C@@H]1CN(c2cc(=O)n(C)c3ccc(C#N)nc23)[C@@H](C)CN1C(c1ccc(F)cc1)c1nc(C2CC2)cs1 (single isomer, unassigned) [Example 1395] | – | 0.07 | 0.19 | – | – |

| SMILES | IC50 (human DGKα; liposome (LIPGLO) assay) [µM] | IC50 (human DGKζ; liposome (LIPGLO) assay) [µM] | EC50 (Human venous whole blood; [1]) [µM] | EC50 (Human venous whole blood; [2]) [µM] | also measured |
| --- | --- | --- | --- | --- | --- |
| Cc1noc(C(c2ccc(F)cc2)N2C[C@H](C)N(c3cc(=O)n(C)c4ccc(C#N)nc34)C[C@H]2C)n1 (stereo partly shown) [Example 746] | – | – | – | – | IC50 (human DGKζ; DGKζ liposome (LIPGLO) assay): 0.17 µM; EC50 (Human venous whole blood; [3]): 0.96 µM |
| CC(c1csc(C(F)(F)F)n1)N1C[C@H](C)N(c2cc(=O)n(C)c3ccc(C#N)nc23)C[C@H]1C (single isomer, unassigned) [Example 1274] | 0.59 | – | 3.3 | – | – |
| CC(c1ccc(Cl)cc1F)N1C[C@H](C)N(c2cc(=O)n(C)c3ccc(C#N)nc23)C[C@H]1C (stereo partly shown) [Example 1230] | – | 0.16 | – | 0.1 | – |
| CC(c1ccc(C(F)(F)F)cn1)N1C[C@H](C)N(c2cc(=O)n(C)c3ccc(C#N)nc23)C[C@H]1C (single isomer, unassigned) [Example 642] | – | 0.19 | – | 3.3 | – |
| Cc1oc(-c2cccc(F)c2)nc1CN1C[C@H](C)N(c2cc(=O)n(C)c3ccc(C#N)nc23)C[C@H]1C [Example 1429] | 48 | – | 20 | – | – |
| CC(c1cc(OC(F)(F)F)ccc1F)N1C[C@H](C)N(c2cc(=O)n(C)c3ccc(C#N)nc23)C[C@H]1C (stereo partly shown) [Example 1202] | 2.2 | – | 1.3 | – | – |
| C[C@@H]1CN(c2c(F)c(=O)n(C)c3ccc(C#N)nc23)[C@@H](C)CN1C(c1ccc(Cl)cc1)c1ccc(OC(F)(F)F)cc1 (stereo partly drawn) [Example 323, 8-((2S,5R)-4-((4-chlorophenyl)(4-(trifluoromethoxy)phenyl)methyl)-2,5-dimethylpiperazin-1-yl)-7-fluoro-5-methyl-6-oxo-5,6-dihydro-1,5-naphthyridine-2-carbonitrile] | 2.1 | – | – | 5.7 | – |
| COc1ccc(C(c2ccc(F)cc2)N2C[C@H](C)N(c3c(C#N)c(=O)n(C)c4ccc(C#N)nc34)C[C@H]2C)nc1 (stereo partly shown) [Example 838] | – | – | – | – | IC50 (human DGKζ; DGKζ liposome (LIPGLO) assay): 2.1 µM; EC50 (Human venous whole blood; [4]): 17 µM |
| CC[C@@H]1CN(c2cc(=O)n(C)c3ccc(C#N)nc23)[C@@H](C)CN1Cc1ccc(OC(F)(F)F)cc1F [Example 1347] | – | 0.17 | – | 0.73 | – |
| CC[C@@H]1CN(c2cc(=O)n(C)c3ccc(C#N)nc23)[C@@H](C)CN1C(c1ccc(Cl)cc1)c1ccc(F)cn1 (stereo partly shown) [Example 1110] | – | 0.16 | 1.3 | – | – |
| Cc1cccc(C(c2ccc(F)cc2)N2CCN(c3c(C#N)c(=O)n(C)c4ccc(C#N)nc34)C[C@H]2C)c1 (stereo partly shown) [Example 916] | – | – | – | – | IC50 (human DGKζ; DGKζ liposome (LIPGLO) assay): 0.45 µM; EC50 (Human venous whole blood; [3]): 1.9 µM |
| Cc1oc(-c2cccc(F)c2)nc1CN1C[C@H](C)N(c2cc(=O)n(C)c3ccc(C#N)nc23)C[C@H]1C [Example 1430] | 21 | – | 7 | – | – |
| CC(c1ccc(OC(F)(F)F)cc1)N1C[C@H](C)N(c2cc(=O)n(C)c3ccc(C#N)nc23)C[C@H]1CN(C)C (stereo partly drawn) [Example 1413, 8-((2S,5R)-5-((dimethylamino)methyl)-2-methyl-4-(1-(4-(trifluoromethoxy)phenyl)ethyl)piperazin-1-yl)-5-methyl-6-oxo-5,6-dihydro-1,5-naphthyridine-2-carbonitrile] | – | 1.8 | – | 1.4 | – |
| C[C@@H]1CN(c2c(F)c(=O)n(C)c3ccc(C#N)nc23)[C@@H](C)CN1C(c1ccc(F)cc1)c1ccc(C(F)(F)F)cc1 (stereo partly drawn) [Example 326, 7-fluoro-8-((2S,5R)-4-((4-fluorophenyl)(4-(trifluoromethyl)phenyl)methyl)-2,5-dimethylpiperazin-1-yl)-5-methyl-6-oxo-5,6-dihydro-1,5-naphthyridine-2-carbonitrile] | – | 6.5 | 20 | – | – |
| CC(c1ccc(C(F)(F)F)cc1)N1CCN(c2c(C#N)c(=O)n(C)c3ccc(C#N)nc23)C[C@H]1C (single isomer, unassigned) [Example 961] | – | – | – | – | IC50 (human DGKα; DGKα liposome (LIPGLO) assay): 1.5 µM; EC50 (Human venous whole blood; [3]): 20 µM |
| CC[C@H]1CN(C(c2ccc(F)cc2)c2ccccn2)[C@H](CC)CN1c1cc(=O)n(C)c2ccc(C#N)nc12 (single isomer, unassigned) [Example 1044] | – | 0.07 | 0.35 | – | – |
